The text below walks through data of US8501734B2, “Medical intervention in haematological cancers” (Oncotyrol-Center for Personalized Cancer Medicine GmbH …, priority 2008, dated 2013).

For data set [1] the following is noted: in vivo; cited from earlier work.
A further data set concerns U266 cells. As to the kind of experiment: Annexin V/PI apoptosis assay (FACS), U266 cells. Further: key: 0 for no; + for low; ++: + indicates the range of apoptosis induction; +++: + indicates the range of apoptosis induction; ++++ for very strong apoptosis induction. More on the design: apoptosis induction: unit not given here. In kind it is cell-based. How it is done: (§1) After treatment adherent cells were trypsinized (as described before), and resuspended in corresponding full medium. Suspension cells or trypsinized adherent cells, supernatant and washing solution (1×PBS from washing before trypsinization) were pooled and then spun down (300 g for 3 min) washed in 2 ml and resuspended in 1000 of annexin V binding buffer and mixed with 2 μg/ml annexin V-Allophycocyanin (APC) (BD-Pharmingen, San Diego, Calif., USA) and 50 ng/ml of propidium iodide (PI; Sigma Aldrich). At least 10.000 cells were measured per sample using a Becton Dickinson FACSCalibur flow Cytometer (San Jose, Calif., USA). Percentage of Annexin V negative and PI negative cells were depicted in the figures. For the analysis of the pro-apoptotic activity of Imiquimod® in primary MM cells and non-malignant BMMCs, 5×10^5 cells BMMCs cells were treated with or without 40 μg/ml Imiquimod® for the indicated time periods. Cells were then harvested and washed twice with PBS. Detection of apoptotic cells was performed using the annexin V/PI assay according to manufacturers' instruction. Briefly, BMMCs were stained with a mixture of annexin V/FITC (Alexis Coorp., Laeufelfingen, Switzerland), propidium iodide (Sigma), anti-CD38-PE and anti-CD45-PC5 for 15 min at room temperature and immediately analyzed by flow cytometry. The percentages of viable cells (i.e. cells negative for annexin V/FITC and PI) within the MM (CD38^posCD45^low/absent) and non-MM fraction (CD38^neg/CD45^pos) were determined by flow cytometry.
(§2) Adherent cells were grown in 24-well plates to confluence and treated with 40 μg/ml Imiquimod® for 24 h. Cells were then trypsinized, suspended in full medium, stained for AnnexinV/PI and apoptosis was measured as described before. Suspension cells (250.000) were treated with 40 μg/ml Imiquimod® for 24 h, stained for Annexin/PI and apoptosis was measured as described above (Annexin V/Propidium Iodide apoptosis Assay).
(§3) OPM-2 and U266 cells (2.5×10^5 in 500 μl) were treated with either Imiquimod® alone (10 μg/500 μl), various inhibitors/drugs alone or with the combination of Imiquimod® and inhibitors for 24 or 48 h. In the controls the solvent of the drug has been added in appropriate amounts. Cells were then AnnexinV/PI stained and apoptosis measured as described before.

In the next data set the test system is OPM2 cells. Description: Annexin V/PI apoptosis assay (FACS), OPM2 cells. It counts as cell-based. Also noted: apoptosis induction: unit not given here. The following applies: OPM2 cells. How it is done:
as §1
Cells were cultured as described before and, treated with 40 μg/ml Imiquimod® or Gardiquimod® for 24 h, and apoptosis was assayed by AnnexinV/PI staining and FACS analysis.
as §2, §3

[2] abbreviates: 24 h, Imi 20 μg/ml + drug 10 μM.
The mark [3] stands for this setting: 24 h, Imi 20 μg/ml + drug 20 μM.
The mark [4] stands for this setting: 24 h, Imi 20 μg/ml + drug 50 μM.
Setting [5] is: 48 h, Imi 20 μg/ml + drug 10 μM.
[6] abbreviates: 48 h, Imi 20 μg/ml + drug 20 μM.
Setting [7] is: 48 h, Imi 20 μg/ml + drug 50 μM.
The mark [8] stands for this setting: 24 h, Imi 20 μg/ml + drug 100 μM.
Setting [9] is: 48 h, Imi 20 μg/ml + drug 100 μM.
The mark [10] stands for this setting: 24 h, Imi 20 μg/ml + drug 1 ng/ml.
Setting [11] is: 24 h, Imi 20 μg/ml + drug 10 ng/ml.
[12] abbreviates: 24 h, Imi 20 μg/ml + drug 50 ng/ml.
Setting [13] is: 48 h, Imi 20 μg/ml + drug 1 ng/ml.
The mark [14] stands for this setting: 48 h, Imi 20 μg/ml + drug 10 ng/ml.
[15] abbreviates: 48 h, Imi 20 μg/ml + drug 50 ng/ml.

Turning to `CCn1c(-c2nonc2N)nc2c(C#CC(C)(C)O)ncc(OC[C@H]3CCCNC3)c21` [GSK690693], in data set [1], the “reason for withdrawal and termination of clinical phase I studies” value was “hyperglycaemia”.

With `N[C@@H](Cc1ccc(N(CCCl)CCCl)cc1)C(=O)O` [Melphalan], the apoptosis induction entry with U266 cells (setting [2]) is on record as “+”; with U266 cells (setting [3]), “++”; with U266 cells (setting [4]), “+++”; in the data set with U266 cells (24 h, drug alone 10 μM) it was “+”; in the data set with U266 cells (24 h, drug alone 20 μM), “+”; in the data set on U266 cells (24 h, drug alone 50 μM) it was “++”. The apoptosis induction result is “++” in the data set on U266 cells (setting [5]); “++” with U266 cells (setting [6]); “+++” in the data set on U266 cells (setting [7]); “+” with U266 cells (48 h, drug alone 10 μM); “+” with U266 cells (48 h, drug alone 20 μM); “+++” in the data set on U266 cells (48 h, drug alone 50 μM). Also, the apoptosis induction result in the data set on OPM2 cells (setting [2]) is “+”; with OPM2 cells (setting [3]) it was “++”; in the data set on OPM2 cells (setting [4]) it was “++”; in the data set with OPM2 cells (24 h, drug alone 10 μM) it was “+”; with OPM2 cells (24 h, drug alone 20 μM), “+”; in the data set on OPM2 cells (24 h, drug alone 50 μM), “++”. Moreover, the apoptosis induction result is “++” in the data set on OPM2 cells (setting [5]); “++++” with OPM2 cells (setting [6]); “++++” in the data set on OPM2 cells (setting [7]); “nearly complete apoptosis induction in all cells” with OPM2 cells (48 h, drug 20 μM and 50 μM + Imiquimod 20 μg/ml); “+” in the data set on OPM2 cells (48 h, drug alone 10 μM); “++” with OPM2 cells (48 h, drug alone 20 μM). Besides, in the data set with OPM2 cells (48 h, drug alone 50 μM), the apoptosis induction result is given as “+++”.

Regarding `CNC(=O)c1cc(Oc2ccc(NC(=O)Nc3ccc(Cl)c(C(F)(F)F)c3)cc2)ccn1` [Sorafenib], the apoptosis induction was 0 in the data set on U266 cells (24 h, Imi 20 μg/ml + drug 1 μM); “+” in the data set on U266 cells (setting [2]); “+++” in the data set with U266 cells (setting [4]); 0 in the data set with U266 cells (24 h, drug alone 1 μM); 0 in the data set on U266 cells (24 h, drug alone 10 μM); “+++” with U266 cells (24 h, drug alone 50 μM). For the same compound, the apoptosis induction entry with U266 cells (48 h, Imi 20 μg/ml + drug 1 μM) is “+”; with U266 cells (setting [5]) it was “++”; in the data set with U266 cells (setting [7]), “+++”; with U266 cells (48 h, drug alone 1 μM), “+”; in the data set with U266 cells (48 h, drug alone 10 μM), “+”; with U266 cells (48 h, drug alone 50 μM), “+++”. Besides, the apoptosis induction entry in the data set with OPM2 cells (24 h, Imi 20 μg/ml + drug 1 μM) is “+”; in the data set with OPM2 cells (setting [2]), “+”; with OPM2 cells (setting [4]) it was “++++”; in the data set with OPM2 cells (24 h, drug alone 1 μM), 0; in the data set on OPM2 cells (24 h, drug alone 10 μM) it was “+”; in the data set on OPM2 cells (24 h, drug alone 50 μM), “++++”. Further, the apoptosis induction result is on record as “++” in the data set with OPM2 cells (48 h, Imi 20 μg/ml + drug 1 μM); “++++” with OPM2 cells (setting [5]); “++++” in the data set on OPM2 cells (setting [7]); 0 in the data set with OPM2 cells (48 h, drug alone 1 μM); “++” in the data set on OPM2 cells (48 h, drug alone 10 μM); “++++” with OPM2 cells (48 h, drug alone 50 μM). The cells in apoptosis with OPM2 cells (48 h, 10 μM drug + Imiquimod 20 μg/ml) is reported as around 100%. Also, in the data set with OPM2 cells (drug alone 50 μM), the cell killing entry is recorded as “completely killed cells”.

With `O=C1CCC(N2C(=O)c3ccccc3C2=O)C(=O)N1` (stereo not shown) [Thalidomide], the apoptosis induction result in the data set with U266 cells (setting [2]) is on record as “+”; in the data set on U266 cells (setting [8]), “+”; in the data set with U266 cells (24 h, Imi 20 μg/ml + drug 1 mM) it was “+”; in the data set on U266 cells (24 h, drug alone 10 μM) it was 0; with U266 cells (24 h, drug alone 100 μM), 0; with U266 cells (24 h, drug alone 1 mM) it was “+”. Moreover, the apoptosis induction result in the data set with U266 cells (setting [5]) was “+”; with U266 cells (setting [9]) it was “+”; in the data set with U266 cells (48 h, Imi 20 μg/ml + drug 1 mM), “+”; in the data set with U266 cells (48 h, drug alone 10 μM), 0; with U266 cells (48 h, drug alone 100 μM) it was 0; in the data set on U266 cells (48 h, drug alone 1 mM), “+”. Besides, the apoptosis induction result is reported as “+” in the data set on OPM2 cells (setting [2]); “+” with OPM2 cells (setting [8]); “+” with OPM2 cells (24 h, Imi 20 μg/ml + drug 1 mM); 0 with OPM2 cells (24 h, drug alone 10 μM); 0 in the data set with OPM2 cells (24 h, drug alone 100 μM); 0 with OPM2 cells (24 h, drug alone 1 mM). For the same compound, the apoptosis induction entry in the data set on OPM2 cells (setting [5]) was “++”; in the data set on OPM2 cells (setting [9]), “++”; in the data set on OPM2 cells (48 h, Imi 20 μg/ml + drug 1 mM), “+++”; with OPM2 cells (48 h, drug alone 10 μM) it was 0; with OPM2 cells (48 h, drug alone 100 μM), 0; in the data set on OPM2 cells (48 h, drug alone 1 mM), 0.

`CC(C)C[C@H](NC(=O)[C@H](Cc1ccccc1)NC(=O)c1cnccn1)B(O)O` [Velcade]: the apoptosis induction entry in the data set on U266 cells (setting [10]) was “+”; in the data set with U266 cells (setting [11]) it was “+”; with U266 cells (setting [12]) it was “++”; with U266 cells (24 h, drug alone 1 ng/ml) it was 0; in the data set on U266 cells (24 h, drug alone 10 ng/ml) it was “++”; in the data set on U266 cells (24 h, drug alone 50 ng/ml), “++”. In addition, the apoptosis induction result is on record as “+” with U266 cells (setting [13]); “++” in the data set on U266 cells (setting [14]); “++” in the data set on U266 cells (setting [15]); 0 in the data set with U266 cells (48 h, drug alone 1 ng/ml); “+++” in the data set on U266 cells (48 h, drug alone 10 ng/ml); “+++” in the data set with U266 cells (48 h, drug alone 50 ng/ml). For the same compound, the apoptosis induction result in the data set on OPM2 cells (setting [10]) was “+”; in the data set on OPM2 cells (setting [11]), “+”; in the data set on OPM2 cells (setting [12]), “+”; in the data set with OPM2 cells (24 h, drug alone 1 ng/ml), 0; with OPM2 cells (24 h, drug alone 10 ng/ml), “+”; with OPM2 cells (24 h, drug alone 50 ng/ml) it was “+”. The apoptosis induction entry in the data set on OPM2 cells (setting [13]) is “++”; in the data set with OPM2 cells (setting [14]), “++”; with OPM2 cells (setting [15]), “+++”; with OPM2 cells (48 h, drug alone 1 ng/ml), 0; in the data set on OPM2 cells (48 h, drug alone 10 ng/ml) it was “+++”; in the data set on OPM2 cells (48 h, drug alone 50 ng/ml), “+++”.
